PMC12389170, “N-Degron-Based PROTAC Targeting PLK1: A Potential Therapeutic Strategy for Cervical Cancer” (Pharmaceutics, 2025)
Non-standard residues stand in square brackets, D forms with d. Residues, ends and D or L forms follow the SMILES beside them. No end group written: not given here. *: point of attachment. n‑octylphenyl = n-octylphenyl group on the histidine (alkylphenyl side chain at His); His(π-(CH2)8Ph) = N[C@@H](Cc1cncn1CCCCCCCCc1ccccc1)C(=O)O; pT = C[C@@H](OP(=O)(O)O)[C@H](N)C(=O)O; Cbz = O=C(OCc1ccccc1)*; Ahx = NCCCCCC(=O)O

Key:
HeLa cells [1] = assay: Morphological assessment by phase contrast microscopy; type: cell-based; settings: 6 µM, 30 h
HeLa cells [2] = assay: G2/M phase cell cycle arrest by flow cytometry (PI); type: cell-based; settings: 6 µM, 24 h
Protocol: HeLa cells (3.5 × 10^5 cells/well) were seeded into 6-well plates and grown to 80–90% confluence. […] Both medium and floating cells were collected, washed with PBS three times, and fixed in 70% cold ethanol. Further, cells were washed again with PBS and stained with a solution containing PI (1 µg/mL) and RNase A (1 µg/mL) at 37 °C for 30 min. The stained cells were analyzed using a CytoFLEX flow cytometer (Beckman Coulter, Brea, CA, USA), and data were processed with FlowJo v10.10 [10].

HeLa cells [3] = assay: Fluorescence apoptosis assay (LIVE/DEAD kit); type: cell-based; settings: 6 µM, 24 h, LIVE/DEAD staining
HeLa cells [4] = test system: HeLa cells
PLK1 = target: T1, PLK1 (Homo sapiens, UniProt P53350); assay: PLK1 protein degradation in HeLa cells by immunoblotting; type: cell-based; settings: NC1 24 h, 5 µM MG132 for 8 h
T1 construct: cells were lysed and total proteins were extracted for immunoblot analysis of PLK1 expression; endogenous in cells; host or cells: HeLa
Protocol: HeLa cells were seeded in 12-well plates with 1 × 10^5 cells per well and allowed to stay for overnight. Various concentrations (0, 1, 2, 3, 4, and 5 µM) of NC1 were added to HeLa cells in 12-well plates and incubated for 24 h. An amount of 5 µM of MG132 was added to the cells and incubated for 8 h to evaluate the proteasome inhibition. before harvesting. Following treatment, cells were lysed and total proteins were extracted for immunoblot analysis of PLK1 expression. Protein samples were separated by SDS-PAGE and transferred onto PVDF membranes. PLK1 was detected using a mouse-derived monoclonal antibody, with β-actin used as an internal control to ensure equal loading.

PLK1 PBD = target: T2, PLK1 PBD (Mus musculus, UniProt Q07832); assay: Isothermal titration calorimetry (ITC) of PLK1 PBD with NC1; settings: 25 °C, PLK1 PBD 20 µM in cell, NC1 200 µM in syringe, 20 mM HEPES pH 7.5, 200 mM NaCl, 5% DMSO, one-site model, read-out: Kd, binding affinity between NC1 and PLK1 PBD
T2 construct: (Swiss Prot entry Q07832, residues 367–603); 6XHis (N); TEV protease cleavage site (N); made in house; pET28a vector and IPTG induction point to E. coli (inferred)
Protocol: The mouse PLK1 in Polo box domain (PBD) (Swiss Prot entry Q07832, residues 367–603) was expressed as a recombinant protein containing an N-terminal 6XHis tag in the pET28a vector and a tobacco etch virus (TEV) protease cleavage was engineered between the affinity tag and PLK1 PBD. PLK1 PBD protein expression was induced by adding 0.1 mM IPTG and incubating the cells overnight at 18 °C. Following induction, the cells were collected by centrifugation and lysed via sonication after being resuspended in buffer composed of 20 mM HEPES (pH 7.5), 200 mM NaCl, 2 mM β-mercaptoethanol, and 1 mM PMSF. The lysate was clarified by centrifugation at 18,000 rpm for 40 min at 4 °C. The resulting supernatant was subjected to immobilized metal affinity chromatography (IMAC) using a Ni^2+-NTA HiTrap column (GE Healthcare), and the protein was eluted using an imidazole gradient ranging from 25 to 500 mM. For further purification, size-exclusion chromatography was conducted on a HiLoad 26/60 Superdex-75 column equilibrated with 20 mM HEPES (pH 7.2), 150 mM NaCl, and 2 mM DTT. PLK1 PBD protein was purified the purity of the proteins at each stage was checked on 15% SDS-PAGE. The purified PLK1 PBD protein was concentrated to 10 mg/mL using a VIVASPIN20 (Sartorius, Göttingen, Germany) concentrator and stored at −80 °C until use. […]

[5] = test system: HeLa xenograft cervical cancer; assay: In vivo antitumor activity, HeLa xenograft mouse model; settings: nude mice, 4 mg/kg tail vein every 3-4 d for 29 d, n = 4
Protocol: The antitumor efficacy of NC1 was assessed in a HeLa xenograft mouse model, as reported. Briefly, 5 × 10^6 HeLa cells were subcutaneously injected into the right thigh region of immunodeficient nude mice. When tumors reached an approximate volume of 100 mm^3 (calculated using the formula: volume = 0.52 × length × width^2), mice were randomly assigned to treatment groups. NC1 (4 mg/kg) or PBS (vehicle control) was administered via tail vein injection at intervals of 3–4 days over a period of 29 days. Tumor volumes were measured regularly using calipers. All animal procedures were approved by the KBSI Institutional Animal Care and Use Committee (Protocol No. KBSI-IACUC-24-15) and were conducted in accordance with institutional and governmental regulations.

cervical carcinoma = settings: advanced or recurrent cervical carcinoma, limited owing to chemoresistance; cited from earlier work
Excerpt: According to the WHO, cervical cancer was the fourth most common cancer among women globally in 2022, with an estimated 660,000 new cases. Cervical cancer remains a considerable health threat, with 94% of the 350,000 deaths occurring in low- and middle-income countries. Chemotherapy, particularly cisplatin, is the primary treatment for advanced or recurrent cervical carcinoma. However, the response rate is limited to approximately 23% owing to chemoresistance. In addition, carboplatin, another platinum-based chemotherapy, is often used as an alternative for patients intolerant to c ...

[6] = target: T3, NC1 (Arg12-Ahx-PLH(n-octylphenyl)SpT PROTAC peptide) (synthetic construct); assay: ITC
T3 chain: RRRRRRRRRRRR[Ahx]PLH(n‑octylphenyl)S[pT]-NH2

T1 sequence (P53350 whole entry): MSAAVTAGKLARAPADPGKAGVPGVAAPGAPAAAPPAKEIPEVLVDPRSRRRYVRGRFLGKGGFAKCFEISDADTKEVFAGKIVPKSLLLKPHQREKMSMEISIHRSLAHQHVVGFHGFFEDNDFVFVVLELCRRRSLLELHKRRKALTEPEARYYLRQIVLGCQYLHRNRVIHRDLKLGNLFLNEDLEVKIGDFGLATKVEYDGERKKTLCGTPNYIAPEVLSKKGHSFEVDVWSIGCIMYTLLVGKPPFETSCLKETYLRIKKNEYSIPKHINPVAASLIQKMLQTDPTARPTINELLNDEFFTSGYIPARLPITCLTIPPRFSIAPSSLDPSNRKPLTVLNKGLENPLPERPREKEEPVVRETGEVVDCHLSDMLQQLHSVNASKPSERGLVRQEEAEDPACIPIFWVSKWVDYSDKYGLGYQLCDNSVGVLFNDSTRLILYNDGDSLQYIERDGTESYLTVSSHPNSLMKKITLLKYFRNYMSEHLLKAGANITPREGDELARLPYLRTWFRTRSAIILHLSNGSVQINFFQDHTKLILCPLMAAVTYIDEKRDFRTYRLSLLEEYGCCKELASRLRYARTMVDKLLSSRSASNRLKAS

PLH(n-octylphenyl)SpT [4j]
Morphological changes of HeLa cells (HeLa cells [1]): did not induce notable morphological changes | G1 cell population (HeLa cells [2]): 75.88 | G2/M cell population (HeLa cells [2]): 14.68 | Increase in G2/M cell population compared with the control (HeLa cells [2]): 2.38% | S cell population (HeLa cells [2]): 5.47 | SubG1 cell population (HeLa cells [2]): 3.97 | Apoptotic (dead, red) cells in fluorescence images (HeLa cells [3]): few apoptotic red cells | Effect on cell viability (HeLa cells [4]; MTT, 24 h, up to 12 µM): did not significantly affect cell viability

CC(C)C[C@@H](C=O)NC(=O)[C@H](CC(C)C)NC(=O)[C@H](CC(C)C)NC(=O)OCc1ccccc1 [MG132] (Cbz-Leu-Leu-Leu-aldehyde)
Effect of proteasome inhibitor co-treatment on NC1-induced PLK1 degradation (PLK1): significantly reduced degradation

CC(C)C[C@H](NC(=O)[C@@H]1CCCN1C(=O)CCCCCNC(=O)[C@H](CCCNC(=N)N)NC(=O)[C@H](CCCNC(=N)N)NC(=O)[C@H](CCCNC(=N)N)NC(=O)[C@H](CCCNC(=N)N)NC(=O)[C@H](CCCNC(=N)N)NC(=O)[C@H](CCCNC(=N)N)NC(=O)[C@H](CCCNC(=N)N)NC(=O)[C@H](CCCNC(=N)N)NC(=O)[C@H](CCCNC(=N)N)NC(=O)[C@H](CCCNC(=N)N)NC(=O)[C@H](CCCNC(=N)N)NC(=O)[C@@H](N)CCCNC(=N)N)C(=O)N[C@@H](Cc1cncn1CCCCCCCCc1ccccc1)C(=O)N[C@@H](CO)C(=O)N[C@H](C(N)=O)[C@@H](C)OP(=O)(O)O [NC1] (H-RRRRRRRRRRRR[Ahx]PL[His(π-(CH2)8Ph)]S[pT]-NH2)
Kd (PLK1 PBD): 6.06 µM | Body weight of tumor-bearing mice [5]: remained constant | IC50 (HeLa cells [4]; read-out: IC50 for cancer cell viability, MTT, 24 h): 5.23 µM

N.N.[Cl][Pt][Cl] [cisplatin]
Response rate (cervical carcinoma): approximately 23%

B1: PLK1 367-603 (protein)
chain: NEAIECHLSDLLQQLTSVNASKPSERGLVRQEEAEDPACIPIFWVSKWVDYSDKYGLGYQLCDNSVGVLFNDSTRLILYNDGDSLQYIERDGTESYLTVSSHPNSLMKKITLLNYFRNYMSEHLLKAGANITPREGDELARLPYLRTWFRTRSAIILHLSNGTVQINFFQDHTKLILCPLMAAVTYINEKRDFQTYRLSLLEEYGCCKELASRLRYARTMVDKLLSSRSASNRLKAS
Kd [6]: 6.06 µM
